The supplement of paper PMC10627819

How the values were obtained:
B. subtilis 168 [1] = assay: Bliss interaction score (quartile over a dose matrix) (fitness difference); higher = more antagonism (negative = synergy)
Method in brief: (§1)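 The Bliss score was calculated by subtracting the expected fitness, the product of single-drug values, from the observed fitness. OD595 at entry into stationary phase, over the plate's robust no-drug mean and capped at 1, served as the fitness readout. Single-drug values were inferred from combination data, and scores are summarised by quartiles across technical, biological and donor/recipient replicates.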

S. aureus DSM 20231 = assay: as above
Method in brief: as §1

S. pneumoniae D39V [2] = assay: as above
Method in brief: as §1

S. aureus Newman = assay: as above
Method in brief: as §1

B. subtilis 168 [3] = assay: fitness (endpoint OD595 vs no drug) (fraction); higher = more growth
Method in brief: (§2)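 Bacterial fitness was scored as optical density at the stationary-phase transition relative to the robust mean of no-drug control wells. Scores are capped at 1. The growth data were OD595 readings every 30 min for 14 h at 37 °C, background-subtracted against the first reading, from 384-well plates inoculated at OD595 0.01 in TSB, LB Lennox or CY.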

S. pneumoniae D39V [4] = assay: as above
Method in brief: as §2
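For Bliss interaction score (quartile over a dose matrix) in this document: first quartile when negative (synergy) and third quartile when positive (antagonism).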

C[C@@H]1O[C@@H]1P(=O)(O)O [Fosfomycin] + C[C@H]1COc2c(N3CCN(C)CC3)c(F)cc3c(=O)c(C(=O)O)cn1c23 [Levofloxacin]
Details | Bliss interaction score
B. subtilis 168 [1] | -0.0453
S. aureus DSM 20231 | 0.0688
S. aureus Newman | 0.0484
S. pneumoniae D39V [2] | 0.0613

fitness, B. subtilis 168 [3], one replicate
Details | first compound 1.562 µg/mL | first compound 3.124 µg/mL | first compound 6.248 µg/mL
partner 0.001 µg/mL | 0.864 | 0.738 | 0.599
partner 0.0078 µg/mL | 0.75 | 0.643 | 0.492

Details | fitness
B. subtilis 168 [3], first compound 1.562 µg/mL, partner 0.002 µg/mL | 0.717
B. subtilis 168 [3], first compound 1.562 µg/mL, partner 0.0039 µg/mL | 0.724
B. subtilis 168 [3], first compound 1.562 µg/mL, partner 0.0312 µg/mL | 0.0432
B. subtilis 168 [3], first compound 1.562 µg/mL, partner 0.0625 µg/mL | 0.0523
B. subtilis 168 [3], first compound 1.562 µg/mL, partner 0.125 µg/mL | 0.0479
B. subtilis 168 [3], first compound 3.124 µg/mL, partner 0.002 µg/mL | 0.629
B. subtilis 168 [3], first compound 3.124 µg/mL, partner 0.0039 µg/mL | 0.617
B. subtilis 168 [3], first compound 3.124 µg/mL, partner 0.0312 µg/mL | 0.0352
B. subtilis 168 [3], first compound 3.124 µg/mL, partner 0.0625 µg/mL | 0.0394
B. subtilis 168 [3], first compound 3.124 µg/mL, partner 0.125 µg/mL | 0.0439
B. subtilis 168 [3], first compound 6.248 µg/mL, partner 0.002 µg/mL | 0.525
B. subtilis 168 [3], first compound 6.248 µg/mL, partner 0.0039 µg/mL | 0.516
B. subtilis 168 [3], first compound 6.248 µg/mL, partner 0.0312 µg/mL | 0.0328
B. subtilis 168 [3], first compound 6.248 µg/mL, partner 0.0625 µg/mL | 0.0306
B. subtilis 168 [3], first compound 6.248 µg/mL, partner 0.125 µg/mL | 0.023
S. pneumoniae D39V [4], first compound 1.25 µg/mL, partner 0.1725 µg/mL | 0.953
S. pneumoniae D39V [4], first compound 1.25 µg/mL, partner 0.2 µg/mL | 0.936
S. pneumoniae D39V [4], first compound 1.25 µg/mL, partner 0.345 µg/mL | 0.86
S. pneumoniae D39V [4], first compound 1.25 µg/mL, partner 0.4 µg/mL | 0.857
S. pneumoniae D39V [4], first compound 1.25 µg/mL, partner 0.69 µg/mL | 0.633
S. pneumoniae D39V [4], first compound 2.5 µg/mL, partner 0.1725 µg/mL | 0.88
S. pneumoniae D39V [4], first compound 2.5 µg/mL, partner 0.2 µg/mL | 0.892
S. pneumoniae D39V [4], first compound 2.5 µg/mL, partner 0.345 µg/mL | 0.735
S. pneumoniae D39V [4], first compound 2.5 µg/mL, partner 0.4 µg/mL | 0.823
S. pneumoniae D39V [4], first compound 2.5 µg/mL, partner 0.69 µg/mL | 0.574
S. pneumoniae D39V [4], first compound 5 µg/mL, partner 0.1725 µg/mL | 0.821
S. pneumoniae D39V [4], first compound 5 µg/mL, partner 0.2 µg/mL | 0.794
S. pneumoniae D39V [4], first compound 5 µg/mL, partner 0.345 µg/mL | 0.728
S. pneumoniae D39V [4], first compound 5 µg/mL, partner 0.4 µg/mL | 0.697
S. pneumoniae D39V [4], first compound 5 µg/mL, partner 0.69 µg/mL | 0.536
S. pneumoniae D39V [4], first compound 5 µg/mL, partner 0.8 µg/mL | 0.341

O=C(O)c1cn(C2CC2)c2cc(N3CCNCC3)c(F)cc2c1=O [Ciprofloxacin] + CCC[C@@H]1C[C@@H](C(=O)N[C@@H]([C@H]2O[C@H](SC)[C@H](O)[C@@H](O)[C@H]2O)[C@@H](C)O)N(C)C1 [Lincomycin]
Details | Bliss interaction score
B. subtilis 168 [1] | 0.169
S. aureus DSM 20231 | 0.208
S. aureus Newman | 0.119
S. pneumoniae D39V [2] | 0.0743

fitness
Details | partner 0.1 µg/mL | partner 0.2 µg/mL | partner 0.215 µg/mL | partner 0.4 µg/mL | partner 0.43 µg/mL | partner 0.8 µg/mL | partner 0.86 µg/mL
B. subtilis 168 [3], first compound 0.0098 µg/mL | 0.876 | 0.814 | – | 0.9 | – | – | –
B. subtilis 168 [3], first compound 0.0195 µg/mL | 0.713 | 0.751 | – | 0.763 | – | – | –
S. pneumoniae D39V [4], first compound 0.125 µg/mL | – | 0.564 | 0.801 | 0.323 | 0.722 | 0.0204 | 0.469
S. pneumoniae D39V [4], first compound 0.25 µg/mL | – | – | 0.789 | – | 0.701 | – | 0.517
S. pneumoniae D39V [4], first compound 0.5 µg/mL | – | 0.46 | 0.674 | 0.292 | 0.618 | 0.0616 | 0.318

fitness, one replicate
Details | partner 0.2 µg/mL | partner 0.4 µg/mL | partner 0.8 µg/mL | partner 1.6 µg/mL
B. subtilis 168 [3], first compound 0.0098 µg/mL | – | – | 0.943 | 0.926
B. subtilis 168 [3], first compound 0.0195 µg/mL | – | – | 0.745 | 0.767
B. subtilis 168 [3], first compound 0.039 µg/mL | – | – | 0.486 | 0.674
S. pneumoniae D39V [4], first compound 0.25 µg/mL | 0.404 | 0.256 | 0 | –

O=C(O)c1cn(C2CC2)c2cc(N3CCNCC3)c(F)cc2c1=O [Ciprofloxacin] + CN(C)C(=O)C(CCN1CCC(O)(c2ccc(Cl)cc2)CC1)(c1ccccc1)c1ccccc1 [Loperamide]
Details | Bliss interaction score
B. subtilis 168 [1] | 0.199
S. aureus DSM 20231 | -0.258
S. aureus Newman | -0.0992
S. pneumoniae D39V [2] | 0.109

Details | fitness
B. subtilis 168 [3], first compound 0.0098 µg/mL, partner 25 µg/mL | 0.855
B. subtilis 168 [3], first compound 0.0195 µg/mL, partner 25 µg/mL | 0.643
B. subtilis 168 [3], first compound 0.039 µg/mL, partner 25 µg/mL | 0.038
B. subtilis 168 [3], first compound 0.039 µg/mL, partner 50 µg/mL | 0.0608
B. subtilis 168 [3], first compound 0.039 µg/mL, partner 100 µg/mL | 0.0402
S. pneumoniae D39V [4], first compound 0.125 µg/mL, partner 17.14 µg/mL | 0.944
S. pneumoniae D39V [4], first compound 0.125 µg/mL, partner 20 µg/mL | ≥ 1
S. pneumoniae D39V [4], first compound 0.125 µg/mL, partner 34.28 µg/mL | 0.923
S. pneumoniae D39V [4], first compound 0.125 µg/mL, partner 40 µg/mL | ≥ 1
S. pneumoniae D39V [4], first compound 0.25 µg/mL, partner 17.14 µg/mL | 0.887
S. pneumoniae D39V [4], first compound 0.25 µg/mL, partner 34.28 µg/mL | 0.886
S. pneumoniae D39V [4], first compound 0.5 µg/mL, partner 17.14 µg/mL | 0.763
S. pneumoniae D39V [4], first compound 0.5 µg/mL, partner 20 µg/mL | 0.883
S. pneumoniae D39V [4], first compound 0.5 µg/mL, partner 34.28 µg/mL | 0.731
S. pneumoniae D39V [4], first compound 0.5 µg/mL, partner 40 µg/mL | 0.865

fitness, S. pneumoniae D39V [4], one replicate
Details | partner 20 µg/mL | partner 40 µg/mL | partner 68.57 µg/mL | partner 80 µg/mL
first compound 0.125 µg/mL | – | – | 0.952 | –
first compound 0.25 µg/mL | 0.994 | ≥ 1 | 0.964 | 0.531
first compound 0.5 µg/mL | – | – | 0.886 | –

COc1cccc2c1C(=O)c1c(O)c3c(c(O)c1C2=O)C[C@@](O)(C(=O)CO)C[C@@H]3O[C@H]1C[C@H](N)[C@H](O)[C@H](C)O1 [Doxorubicin] + C[C@H]1COc2c(N3CCN(C)CC3)c(F)cc3c(=O)c(C(=O)O)cn1c23 [Levofloxacin]
Details | Bliss interaction score
B. subtilis 168 [1] | 0.0423
S. aureus DSM 20231 | 0.0678
S. aureus Newman | 0.133
S. pneumoniae D39V [2] | -0.0424

fitness, B. subtilis 168 [3], one replicate
Details | first compound 0.625 µg/mL | first compound 1.25 µg/mL | first compound 2.5 µg/mL
partner 0.001 µg/mL | ≥ 1 | 0.98 | 0.943
partner 0.0078 µg/mL | 0.888 | 0.894 | 0.567

Details | fitness
B. subtilis 168 [3], first compound 0.625 µg/mL, partner 0.002 µg/mL | 0.93
B. subtilis 168 [3], first compound 0.625 µg/mL, partner 0.0039 µg/mL | 0.927
B. subtilis 168 [3], first compound 0.625 µg/mL, partner 0.0312 µg/mL | 0.0411
B. subtilis 168 [3], first compound 0.625 µg/mL, partner 0.0625 µg/mL | 0.0463
B. subtilis 168 [3], first compound 0.625 µg/mL, partner 0.125 µg/mL | 0.0495
B. subtilis 168 [3], first compound 1.25 µg/mL, partner 0.002 µg/mL | 0.901
B. subtilis 168 [3], first compound 1.25 µg/mL, partner 0.0039 µg/mL | 0.873
B. subtilis 168 [3], first compound 1.25 µg/mL, partner 0.0312 µg/mL | 0.0455
B. subtilis 168 [3], first compound 1.25 µg/mL, partner 0.0625 µg/mL | 0.0566
B. subtilis 168 [3], first compound 1.25 µg/mL, partner 0.125 µg/mL | 0.0562
B. subtilis 168 [3], first compound 2.5 µg/mL, partner 0.002 µg/mL | 0.791
B. subtilis 168 [3], first compound 2.5 µg/mL, partner 0.0039 µg/mL | 0.73
B. subtilis 168 [3], first compound 2.5 µg/mL, partner 0.0312 µg/mL | 0.031
B. subtilis 168 [3], first compound 2.5 µg/mL, partner 0.0625 µg/mL | 0.0389
B. subtilis 168 [3], first compound 2.5 µg/mL, partner 0.125 µg/mL | 0.0379
S. pneumoniae D39V [4], first compound 0.25 µg/mL, partner 0.1725 µg/mL | 0.853
S. pneumoniae D39V [4], first compound 0.25 µg/mL, partner 0.2 µg/mL | 0.904
S. pneumoniae D39V [4], first compound 0.25 µg/mL, partner 0.345 µg/mL | 0.776
S. pneumoniae D39V [4], first compound 0.25 µg/mL, partner 0.4 µg/mL | 0.834
S. pneumoniae D39V [4], first compound 0.25 µg/mL, partner 0.69 µg/mL | 0.509
S. pneumoniae D39V [4], first compound 0.5 µg/mL, partner 0.1725 µg/mL | 0.941
S. pneumoniae D39V [4], first compound 0.5 µg/mL, partner 0.2 µg/mL | 0.942
S. pneumoniae D39V [4], first compound 0.5 µg/mL, partner 0.345 µg/mL | 0.871
S. pneumoniae D39V [4], first compound 0.5 µg/mL, partner 0.4 µg/mL | 0.831
S. pneumoniae D39V [4], first compound 0.5 µg/mL, partner 0.69 µg/mL | 0.571
S. pneumoniae D39V [4], first compound 1 µg/mL, partner 0.1725 µg/mL | 0.875
S. pneumoniae D39V [4], first compound 1 µg/mL, partner 0.2 µg/mL | 0.854
S. pneumoniae D39V [4], first compound 1 µg/mL, partner 0.345 µg/mL | 0.798
S. pneumoniae D39V [4], first compound 1 µg/mL, partner 0.4 µg/mL | 0.736
S. pneumoniae D39V [4], first compound 1 µg/mL, partner 0.69 µg/mL | 0.548
S. pneumoniae D39V [4], first compound 1 µg/mL, partner 0.8 µg/mL | 0.342
